Data from EP4635500A1, “THERAPEUTIC AGENT FOR BACTERIAL INFECTION” (Sumitomo Pharma Co., Ltd., priority 2022, dated 2024).
Values after ≈ are worked out from the molar mass of the structure shown. Like-named read-outs stand apart in the source and are kept apart here.

System: carbapenemase-producing Enterobacteriaceae (CPE)
Assay: MIC in human urine and CAMHB at pH 5.0 to 8.0 (Example 13, Tables 29, 30)

C[C@@H](O)[C@H]1C(=O)N2C(C(=O)O)=C(S[C@@H]3CN[C@H](C(=O)N(C)C)C3)[C@H](C)[C@H]12 [MEPM, meropenem]
MIC (Escherichia coli, ATCC25922, pH 5, read-out: MICs of MEPM, E. coli ATCC 25922 (QC strain), CAMHB pH5.0): 0.12 mg/L (≈ 0.313 µM)
MIC (Escherichia coli, ATCC25922, pH 5, read-out: MICs of MEPM, E. coli ATCC 25922 (QC strain), Human urine pH5.0): 0.12 mg/L (≈ 0.313 µM)
MIC (Escherichia coli, ATCC25922, pH 6, read-out: MICs of MEPM, E. coli ATCC 25922 (QC strain), CAMHB pH6.0): 0.06 mg/L (≈ 0.156 µM)
MIC (Escherichia coli, ATCC25922, pH 6, read-out: MICs of MEPM, E. coli ATCC 25922 (QC strain), Human urine pH6.0): 0.03 mg/L (≈ 0.0782 µM)
MIC (Escherichia coli, ATCC25922, pH 7, read-out: MICs of MEPM, E. coli ATCC 25922 (QC strain), Human urine pH7.0): 0.015 mg/L (≈ 0.0391 µM)
MIC (Escherichia coli, ATCC25922, pH 7.2, read-out: MICs of MEPM, E. coli ATCC 25922 (QC strain), Standard condition (CAMHB pH7.2)): 0.03 mg/L (≈ 0.0782 µM)
MIC (Escherichia coli, ATCC25922, pH 8, read-out: MICs of MEPM, E. coli ATCC 25922 (QC strain), CAMHB pH8.0): 0.015 mg/L (≈ 0.0391 µM)
MIC (Escherichia coli, ATCC25922, pH 8, read-out: MICs of MEPM, E. coli ATCC 25922 (QC strain), Human urine pH8.0): 0.015 mg/L (≈ 0.0391 µM)
MIC (Escherichia coli, ATCCBAA2340, pH 5, read-out: MICs of MEPM, E. coli ATCC BAA-2340 (KPC-3), CAMHB pH5.0): 2 mg/L (≈ 5.22 µM)
MIC (Escherichia coli, ATCCBAA2340, pH 5, read-out: MICs of MEPM, E. coli ATCC BAA-2340 (KPC-3), Human urine pH5.0): 1 mg/L (≈ 2.61 µM)
MIC (Escherichia coli, ATCCBAA2340, pH 6, read-out: MICs of MEPM, E. coli ATCC BAA-2340 (KPC-3), CAMHB pH6.0): 8 mg/L (≈ 20.9 µM)
MIC (Escherichia coli, ATCCBAA2340, pH 6, read-out: MICs of MEPM, E. coli ATCC BAA-2340 (KPC-3), Human urine pH6.0): 1 mg/L (≈ 2.61 µM)
MIC (Escherichia coli, ATCCBAA2340, pH 7, read-out: MICs of MEPM, E. coli ATCC BAA-2340 (KPC-3), Human urine pH7.0): 2 mg/L (≈ 5.22 µM)
MIC (Escherichia coli, ATCCBAA2340, pH 7.2, read-out: MICs of MEPM, E. coli ATCC BAA-2340 (KPC-3), Standard condition (CAMHB pH7.2)): 8 mg/L (≈ 20.9 µM)
MIC (Escherichia coli, ATCCBAA2340, pH 8, read-out: MICs of MEPM, E. coli ATCC BAA-2340 (KPC-3), CAMHB pH8.0): 4 mg/L (≈ 10.4 µM)
MIC (Escherichia coli, ATCCBAA2340, pH 8, read-out: MICs of MEPM, E. coli ATCC BAA-2340 (KPC-3), Human urine pH8.0): 8 mg/L (≈ 20.9 µM)
MIC (Escherichia coli, ATCCBAA2469, pH 5, read-out: MICs of MEPM, E. coli ATCC BAA-2469 (NDM-1), CAMHB pH5.0): 0.12 mg/L (≈ 0.313 µM)
MIC (Escherichia coli, ATCCBAA2469, pH 5, read-out: MICs of MEPM, E. coli ATCC BAA-2469 (NDM-1), Human urine pH5.0): 0.12 mg/L (≈ 0.313 µM)
MIC (Escherichia coli, ATCCBAA2469, pH 6, read-out: MICs of MEPM, E. coli ATCC BAA-2469 (NDM-1), CAMHB pH6.0): 8 mg/L (≈ 20.9 µM)
MIC (Escherichia coli, ATCCBAA2469, pH 6, read-out: MICs of MEPM, E. coli ATCC BAA-2469 (NDM-1), Human urine pH6.0): 0.12 mg/L (≈ 0.313 µM)
MIC (Escherichia coli, ATCCBAA2469, pH 7, read-out: MICs of MEPM, E. coli ATCC BAA-2469 (NDM-1), Human urine pH7.0): 16 mg/L (≈ 41.7 µM)
MIC (Escherichia coli, ATCCBAA2469, pH 7.2, read-out: MICs of MEPM, E. coli ATCC BAA-2469 (NDM-1), Standard condition (CAMHB pH7.2)): 32 mg/L (≈ 83.4 µM)
MIC (Escherichia coli, ATCCBAA2469, pH 8, read-out: MICs of MEPM, E. coli ATCC BAA-2469 (NDM-1), CAMHB pH8.0): 64 mg/L (≈ 167 µM)
MIC (Escherichia coli, ATCCBAA2469, pH 8, read-out: MICs of MEPM, E. coli ATCC BAA-2469 (NDM-1), Human urine pH8.0): 8 mg/L (≈ 20.9 µM)
MIC (Escherichia coli, NCTC13476, pH 5, read-out: MICs of MEPM, E. coli NCTC 13476 (IMP-1), CAMHB pH5.0): 0.25 mg/L (≈ 0.652 µM)
MIC (Escherichia coli, NCTC13476, pH 5, read-out: MICs of MEPM, E. coli NCTC 13476 (IMP-1), Human urine pH5.0): 0.25 mg/L (≈ 0.652 µM)
MIC (Escherichia coli, NCTC13476, pH 6, read-out: MICs of MEPM, E. coli NCTC 13476 (IMP-1), CAMHB pH6.0): 1 mg/L (≈ 2.61 µM)
MIC (Escherichia coli, NCTC13476, pH 6, read-out: MICs of MEPM, E. coli NCTC 13476 (IMP-1), Human urine pH6.0): 0.12 mg/L (≈ 0.313 µM)
MIC (Escherichia coli, NCTC13476, pH 7, read-out: MICs of MEPM, E. coli NCTC 13476 (IMP-1), Human urine pH7.0): 1 mg/L (≈ 2.61 µM)
MIC (Escherichia coli, NCTC13476, pH 7.2, read-out: MICs of MEPM, E. coli NCTC 13476 (IMP-1), Standard condition (CAMHB pH7.2)): 4 mg/L (≈ 10.4 µM)
MIC (Escherichia coli, NCTC13476, pH 8, read-out: MICs of MEPM, E. coli NCTC 13476 (IMP-1), CAMHB pH8.0): 16 mg/L (≈ 41.7 µM)
MIC (Escherichia coli, NCTC13476, pH 8, read-out: MICs of MEPM, E. coli NCTC 13476 (IMP-1), Human urine pH8.0): 8 mg/L (≈ 20.9 µM)
MIC (Klebsiella pneumoniae, ATCCBAA2342, pH 5, read-out: MICs of MEPM, K. pneumoniae ATCC BAA-2342 (KPC-3), CAMHB pH5.0): 16 mg/L (≈ 41.7 µM)
MIC (Klebsiella pneumoniae, ATCCBAA2342, pH 5, read-out: MICs of MEPM, K. pneumoniae ATCC BAA-2342 (KPC-3), Human urine pH5.0): 4 mg/L (≈ 10.4 µM)
MIC (Klebsiella pneumoniae, ATCCBAA2342, pH 6, read-out: MICs of MEPM, K. pneumoniae ATCC BAA-2342 (KPC-3), CAMHB pH6.0): 16 mg/L (≈ 41.7 µM)
MIC (Klebsiella pneumoniae, ATCCBAA2342, pH 6, read-out: MICs of MEPM, K. pneumoniae ATCC BAA-2342 (KPC-3), Human urine pH6.0): 8 mg/L (≈ 20.9 µM)
MIC (Klebsiella pneumoniae, ATCCBAA2342, pH 7, read-out: MICs of MEPM, K. pneumoniae ATCC BAA-2342 (KPC-3), Human urine pH7.0): 16 mg/L (≈ 41.7 µM)
MIC (Klebsiella pneumoniae, ATCCBAA2342, pH 7.2, read-out: MICs of MEPM, K. pneumoniae ATCC BAA-2342 (KPC-3), Standard condition (CAMHB pH7.2)): 16 mg/L (≈ 41.7 µM)
MIC (Klebsiella pneumoniae, ATCCBAA2342, pH 8, read-out: MICs of MEPM, K. pneumoniae ATCC BAA-2342 (KPC-3), CAMHB pH8.0): 16 mg/L (≈ 41.7 µM)
MIC (Klebsiella pneumoniae, ATCCBAA2342, pH 8, read-out: MICs of MEPM, K. pneumoniae ATCC BAA-2342 (KPC-3), Human urine pH8.0): 32 mg/L (≈ 83.4 µM)
MIC (Klebsiella pneumoniae, ATCCBAA2344, pH 5, read-out: MICs of MEPM, K. pneumoniae ATCC BAA-2344 (KPC-2), CAMHB pH5.0): 8 mg/L (≈ 20.9 µM)
MIC (Klebsiella pneumoniae, ATCCBAA2344, pH 5, read-out: MICs of MEPM, K. pneumoniae ATCC BAA-2344 (KPC-2), Human urine pH5.0): 2 mg/L (≈ 5.22 µM)
MIC (Klebsiella pneumoniae, ATCCBAA2344, pH 6, read-out: MICs of MEPM, K. pneumoniae ATCC BAA-2344 (KPC-2), CAMHB pH6.0): 32 mg/L (≈ 83.4 µM)
MIC (Klebsiella pneumoniae, ATCCBAA2344, pH 6, read-out: MICs of MEPM, K. pneumoniae ATCC BAA-2344 (KPC-2), Human urine pH6.0): 8 mg/L (≈ 20.9 µM)
MIC (Klebsiella pneumoniae, ATCCBAA2344, pH 7, read-out: MICs of MEPM, K. pneumoniae ATCC BAA-2344 (KPC-2), Human urine pH7.0): 32 mg/L (≈ 83.4 µM)
MIC (Klebsiella pneumoniae, ATCCBAA2344, pH 7.2, read-out: MICs of MEPM, K. pneumoniae ATCC BAA-2344 (KPC-2), Standard condition (CAMHB pH7.2)): 32 mg/L (≈ 83.4 µM)
MIC (Klebsiella pneumoniae, ATCCBAA2344, pH 8, read-out: MICs of MEPM, K. pneumoniae ATCC BAA-2344 (KPC-2), CAMHB pH8.0): 32 mg/L (≈ 83.4 µM)
MIC (Klebsiella pneumoniae, ATCCBAA2344, pH 8, read-out: MICs of MEPM, K. pneumoniae ATCC BAA-2344 (KPC-2), Human urine pH8.0): 32 mg/L (≈ 83.4 µM)
MIC (Klebsiella pneumoniae, ATCCBAA2470, pH 5, read-out: MICs of MEPM, K. pneumoniae ATCC BAA-2470 (NDM-1), CAMHB pH5.0): 0.12 mg/L (≈ 0.313 µM)
MIC (Klebsiella pneumoniae, ATCCBAA2470, pH 5, read-out: MICs of MEPM, K. pneumoniae ATCC BAA-2470 (NDM-1), Human urine pH5.0): 0.12 mg/L (≈ 0.313 µM)
MIC (Klebsiella pneumoniae, ATCCBAA2470, pH 6, read-out: MICs of MEPM, K. pneumoniae ATCC BAA-2470 (NDM-1), CAMHB pH6.0): 8 mg/L (≈ 20.9 µM)
MIC (Klebsiella pneumoniae, ATCCBAA2470, pH 6, read-out: MICs of MEPM, K. pneumoniae ATCC BAA-2470 (NDM-1), Human urine pH6.0): 0.12 mg/L (≈ 0.313 µM)
MIC (Klebsiella pneumoniae, ATCCBAA2470, pH 7, read-out: MICs of MEPM, K. pneumoniae ATCC BAA-2470 (NDM-1), Human urine pH7.0): 16 mg/L (≈ 41.7 µM)
MIC (Klebsiella pneumoniae, ATCCBAA2470, pH 7.2, read-out: MICs of MEPM, K. pneumoniae ATCC BAA-2470 (NDM-1), Standard condition (CAMHB pH7.2)): 16 mg/L (≈ 41.7 µM)
